“And” between values parts separate entries of the source, which are not always exact repeats. Equal entries are not always repeated. Toxic doses and inconclusive results are not listed. Rule as the data show it: active = T/C of 150% or more; inactive = T/C below 125%.
Tested on: L1210 leukemia ip in BDF1 mice, survival T/C
Experiment: NCI In Vivo Anticancer Drug Screen. Data for tumor model L1210 Leukemia (intraperitoneal) in B6D2F1 (BDF1) mice
Conditions: endpoint: mean survival time, higher = longer survival
Procedure, shortened: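 In this screen, tumor-bearing mice given compound are compared to those given vehicle, and their survival values are reported as a treated-to-control quotient.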

[1] = dose: 20.0 mg/kg/injection, schedule: Q01DX009 (ip), vehicle: Klucel (hydroxypropylcellulose) (HPC)
[2] = dose: 40.0 mg/kg/injection, schedule: Q04DX003 (ip), vehicle: Klucel (hydroxypropylcellulose) (HPC)
[3] = dose: 100.0 mg/kg/injection, schedule: Q01DX009 (ip), vehicle: Klucel (hydroxypropylcellulose) (HPC)
[4] = dose: 200.0 mg/kg/injection, schedule: Q01DX009 (ip), vehicle: Klucel (hydroxypropylcellulose) (HPC)
[5] = dose: 100.0 mg/kg/injection, schedule: Q04DX002 (ip), vehicle: Klucel (hydroxypropylcellulose) (HPC)
[6] = dose: 200.0 mg/kg/injection, schedule: Q04DX002 (ip), vehicle: Klucel (hydroxypropylcellulose) (HPC)
[7] = dose: 400.0 mg/kg/injection, schedule: Q01DX009 (ip), vehicle: Klucel (hydroxypropylcellulose) (HPC)
[8] = dose: 2.5 mg/kg/injection, schedule: Q01DX009 (ip), vehicle: Klucel (hydroxypropylcellulose) (HPC)
[9] = dose: 5.0 mg/kg/injection, schedule: Q01DX009 (ip), vehicle: Klucel (hydroxypropylcellulose) (HPC)
[10] = dose: 10.0 mg/kg/injection, schedule: Q01DX009 (ip), vehicle: Klucel (hydroxypropylcellulose) (HPC)
[11] = dose: 100.0 mg/kg/injection, schedule: Q01DX001 (ip), vehicle: saline
[12] = dose: 200.0 mg/kg/injection, schedule: Q01DX001 (ip), vehicle: saline
[13] = dose: 400.0 mg/kg/injection, schedule: Q01DX001 (ip), vehicle: saline
[14] = dose: 100.0 mg/kg/injection, schedule: Q01DX009 (ip), vehicle: saline with Tween-80
[15] = dose: 100.0 mg/kg/injection, schedule: Q04DX003 (ip), vehicle: saline with Tween-80
[16] = dose: 200.0 mg/kg/injection, schedule: Q01DX009 (ip), vehicle: saline with Tween-80
[17] = dose: 200.0 mg/kg/injection, schedule: Q04DX003 (ip), vehicle: saline with Tween-80
[18] = dose: 400.0 mg/kg/injection, schedule: Q01DX009 (ip), vehicle: saline with Tween-80
[19] = dose: 400.0 mg/kg/injection, schedule: Q04DX003 (ip), vehicle: saline with Tween-80

Measured: T/C

O=C(C=C(C(F)(F)F)C(F)(F)F)c1ccco1
inactive: dose: 12.5 mg/kg/injection, schedule: Q01DX009 (ip), vehicle: saline with Tween-80 100 % of control | dose: 25.0 mg/kg/injection, schedule: Q01DX009 (ip), vehicle: saline with Tween-80 104 % of control

O=C(CCN1CC1)Nc1ccc(NC(=O)CCN2CC2)cc1
active: dose: 3.0 mg/kg/injection, schedule: Q01DX009 (ip), vehicle: Klucel (hydroxypropylcellulose) (HPC) 156 % of control | dose: 6.6 mg/kg/injection, schedule: Q01DX009 (ip), vehicle: Klucel (hydroxypropylcellulose) (HPC) 184 % of control | [2] 171 % of control and 181 % of control
inactive: dose: 2.0 mg/kg/injection, schedule: Q01DX009 (ip), vehicle: Klucel (hydroxypropylcellulose) (HPC) 121 % of control | dose: 10.0 mg/kg/injection, schedule: Q04DX003 (ip), vehicle: Klucel (hydroxypropylcellulose) (HPC) 115 % of control | [1] 97 % of control

Cc1cccc(C(=O)NNC(=O)c2cccc(C)c2)c1
inactive: [3] 106 % of control | [4] 108 % of control

Cc1cc(Br)ccc1NC(=O)/C=C/C(=O)O
inactive: [5] 114 % of control | [6] 95 % of control | dose: 400.0 mg/kg/injection, schedule: Q04DX002 (ip), vehicle: Klucel (hydroxypropylcellulose) (HPC) 100 % of control

CN(Cc1ccccc1)C(=O)Nc1ccc(Cl)c(Cl)c1
inactive: [3] 97 % of control | [4] 110 % of control | [7] 101 % of control

CCOC(=O)c1ccc(NS(=O)(=O)c2ccc(Cl)cc2[N+](=O)[O-])cc1
inactive: dose: 100.0 mg/kg/injection, schedule: Q01DX001 (ip), vehicle: carboxymethylcellulose (CMC) 99 % of control | dose: 100.0 mg/kg/injection, schedule: Q01DX009 (ip), vehicle: carboxymethylcellulose (CMC) 112 % of control and 88 % of control | dose: 100.0 mg/kg/injection, schedule: Q04DX002 (ip), vehicle: carboxymethylcellulose (CMC) 96 % of control and 90 % of control | dose: 100.0 mg/kg/injection, schedule: Q04DX003 (ip), vehicle: carboxymethylcellulose (CMC) 105 % of control | dose: 200.0 mg/kg/injection, schedule: Q01DX001 (ip), vehicle: carboxymethylcellulose (CMC) 101 % of control | dose: 200.0 mg/kg/injection, schedule: Q01DX009 (ip), vehicle: carboxymethylcellulose (CMC) 88 % of control and 89 % of control | dose: 200.0 mg/kg/injection, schedule: Q04DX002 (ip), vehicle: carboxymethylcellulose (CMC) 93 % of control and 91 % of control | dose: 200.0 mg/kg/injection, schedule: Q04DX003 (ip), vehicle: carboxymethylcellulose (CMC) 102 % of control | dose: 400.0 mg/kg/injection, schedule: Q01DX001 (ip), vehicle: carboxymethylcellulose (CMC) 103 % of control | dose: 400.0 mg/kg/injection, schedule: Q01DX009 (ip), vehicle: carboxymethylcellulose (CMC) 88 % of control and 91 % of control | dose: 400.0 mg/kg/injection, schedule: Q04DX002 (ip), vehicle: carboxymethylcellulose (CMC) 93 % of control | dose: 400.0 mg/kg/injection, schedule: Q04DX003 (ip), vehicle: carboxymethylcellulose (CMC) 93 % of control

C=C1C(=O)C2(C)OC2(C)C1C(=O)O (configuration not stated)
inactive: dose: 1.25 mg/kg/injection, schedule: Q01DX009 (ip), vehicle: Klucel (hydroxypropylcellulose) (HPC) 94 % of control | [8] 100 % of control | [9] 105 % of control | [10] 101 % of control

NC(CSS(=O)(=O)O)=NCc1cccnc1
inactive: [5] 89 % of control | [6] 105 % of control

O=P(CCCl)(OCCCl)N1CCCCC1 (configuration not stated)
inactive: dose: 50.0 mg/kg/injection, schedule: Q04DX003 (ip), vehicle: saline 104 % of control | dose: 100.0 mg/kg/injection, schedule: Q01DX009 (ip), vehicle: saline 93 % of control | dose: 100.0 mg/kg/injection, schedule: Q04DX003 (ip), vehicle: saline 104 % of control | dose: 200.0 mg/kg/injection, schedule: Q01DX009 (ip), vehicle: saline 96 % of control | dose: 200.0 mg/kg/injection, schedule: Q04DX003 (ip), vehicle: saline 102 % of control | dose: 400.0 mg/kg/injection, schedule: Q01DX009 (ip), vehicle: saline 88 % of control | dose: 400.0 mg/kg/injection, schedule: Q04DX003 (ip), vehicle: saline 98 % of control

C1C2C1C1C3C2C2C4C5CC5C5C2C1C1C5C4C31 (configuration not stated)
inactive: dose: 50.0 mg/kg/injection, schedule: Q01DX001 (ip), vehicle: saline 106 % of control | [11] 112 % of control | [12] 122 % of control | [13] 106 % of control

O=C(CCN1CC1)OCC1CC1
inactive: [8] 103 % of control | [9] 97 % of control | [10] 105 % of control | [1] 114 % of control | dose: 20.0 mg/kg/injection, schedule: Q04DX003 (ip), vehicle: Klucel (hydroxypropylcellulose) (HPC) 98 % of control | [2] 101 % of control | dose: 80.0 mg/kg/injection, schedule: Q04DX003 (ip), vehicle: Klucel (hydroxypropylcellulose) (HPC) 97 % of control

CCC(=O)CCC1CCCCC1
inactive: [11] 94 % of control | [12] 100 % of control | [13] 91 % of control

NS(=O)Oc1ccc(Nc2ncnc3nc[nH]c23)cc1 (configuration not stated)
inactive: [14] 97 % of control | [15] 98 % of control | [16] 95 % of control | [17] 102 % of control | [18] 104 % of control | [19] 98 % of control

C[N+](C)(C)CCOC(=O)c1ccc(CCl)cc1
inactive: dose: 25.0 mg/kg/injection, schedule: Q04DX002 (ip), vehicle: saline with Tween-80 113 % of control | dose: 50.0 mg/kg/injection, schedule: Q04DX002 (ip), vehicle: saline with Tween-80 102 % of control | dose: 100.0 mg/kg/injection, schedule: Q04DX002 (ip), vehicle: other 98 % of control | dose: 100.0 mg/kg/injection, schedule: Q04DX002 (ip), vehicle: saline with Tween-80 110 % of control

CCOC(=O)c1[nH]c2ccccc2c1CN(CCCl)CCCl
inactive: dose: 2.5 mg/kg/injection, schedule: Q01DX Z (ip), vehicle: saline 107 % of control | dose: 5.0 mg/kg/injection, schedule: Q01DX Z (ip), vehicle: saline 108 % of control | dose: 10.0 mg/kg/injection, schedule: Q01DX Z (ip), vehicle: other 120 % of control | dose: 10.0 mg/kg/injection, schedule: Q01DX Z (ip), vehicle: saline 120 % of control | dose: 20.0 mg/kg/injection, schedule: Q01DX Z (ip), vehicle: other 122 % of control

O=C(Nc1ccc([N+](=O)[O-])cc1Cl)Oc1cccc2ccccc12
inactive: [3] 96 % of control | dose: 100.0 mg/kg/injection, schedule: Q04DX003 (ip), vehicle: Klucel (hydroxypropylcellulose) (HPC) 105 % of control | [4] 96 % of control | dose: 200.0 mg/kg/injection, schedule: Q04DX003 (ip), vehicle: Klucel (hydroxypropylcellulose) (HPC) 105 % of control | [7] 102 % of control | dose: 400.0 mg/kg/injection, schedule: Q04DX003 (ip), vehicle: Klucel (hydroxypropylcellulose) (HPC) 105 % of control

CCCCc1c(N)nc(N)nc1N
inactive: dose: 75.0 mg/kg/injection, schedule: Q01DX001 (ip), vehicle: saline with Tween-80 103 % of control

NC(=S)N/N=C\C(c1ccccc1)c1ccccc1
inactive: [14] 98 % of control | [15] 96 % of control | [16] 94 % of control | [17] 95 % of control | [18] 96 % of control | [19] 104 % of control

NC(=S)c1ccncc1
inactive: [14] 104 % of control | [15] 103 % of control | [16] 104 % of control | [17] 109 % of control | [18] 112 % of control | [19] 101 % of control

O=C(/C=C/c1ccco1)c1ccc(F)cc1
inactive: dose: 75.0 mg/kg/injection, schedule: Q01DX001 (ip), vehicle: saline 94 % of control | dose: 150.0 mg/kg/injection, schedule: Q01DX001 (ip), vehicle: saline 98 % of control | dose: 300.0 mg/kg/injection, schedule: Q01DX001 (ip), vehicle: saline 102 % of control
